This note sets out measurements from US20170247326A1, “Substituted Pyrrolidine Carboxamide Compounds” (EPIZYME, INC., priority 2014, published 2017).

T1 sequence (Q9NRG4 whole entry): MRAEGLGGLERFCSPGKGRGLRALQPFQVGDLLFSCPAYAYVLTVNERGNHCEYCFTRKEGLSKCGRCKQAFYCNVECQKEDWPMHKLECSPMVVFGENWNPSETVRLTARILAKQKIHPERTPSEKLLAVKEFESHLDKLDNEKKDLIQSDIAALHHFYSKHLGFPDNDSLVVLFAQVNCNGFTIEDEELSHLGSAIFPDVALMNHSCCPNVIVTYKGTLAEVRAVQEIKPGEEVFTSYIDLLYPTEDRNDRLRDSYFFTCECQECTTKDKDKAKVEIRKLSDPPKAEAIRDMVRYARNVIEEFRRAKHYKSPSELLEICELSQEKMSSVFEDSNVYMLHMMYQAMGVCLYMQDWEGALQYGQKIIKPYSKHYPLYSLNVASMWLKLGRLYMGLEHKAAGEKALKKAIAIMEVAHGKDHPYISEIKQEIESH

The assay addresses T1, SMYD2 (Homo sapiens, UniProt Q9NRG4).
T1 construct: Full length SMYD2 (NP_064582.2) was cloned; His6 (N, cleaved yes); FLAG (N); made in house; host or cells: Sf9 insect cells
Nature of the assay: SMYD2 biochemical assay (3H-SAM, biotinylated peptide substrate, Flashplate). To be noted: Table 3; average of n = 1 to n = 50; read-out: SMYD2 Biochem IC50. An excerpt: S-adenosylmethionine (SAM), S-adenosylhomocysteine (SAH), bicine, Tween20, dimethylsulfoxide (DMSO), bovine skin gelatin (BSG), and Tris(2-carboxyethyl)phosphine hydrochloride (TCEP) were purchased from Sigma-Aldrich at the highest level of purity possible. ^3H-SAM was purchase from American Radiolabeled Chemicals with a specific activity of 80 Ci/mmol. 384-well streptavidin Flashplates were purchased from PerkinElmer.
Peptide was synthesized with a N-terminal linker-affinity tag motif and a C-terminal amide cap by 21st Century Biochemicals. The peptide was high high-performance liquid chromatography (HPLC) purified to greater than 95% purity and confirmed by liquid chromatography mass spectrometry (LC-MS). The sequence was […](K-Biot)-amide. (SEQ ID NO: 3)
Full length SMYD2 (NP_064582.2) was cloned into a pFastbac-Htb-lic vector with an N-terminal His6 tag and FLAG tag, preceded by a TEV protease cleavage site. The protein was expressed in Sf9 insect cells. Cells were resuspended in lysis buffer (25 mM HEPES-NaOH, pH 7.5, 200 mM NaCl, 5% glycerol, and 5 mM […] and lysed by sonication. The protein was purified by Ni-NTA (Qiagen), followed by TEV cleavage to remove the His6 tag, subtractive Ni-NTA (Qiagen), and gel filtration chromatography using an S200 column (GE Healthcare). Purified protein was stored in 20 mM Tris-HCl, pH 8.0, 100 mM NaCl, and 1 mM TCEP.
General Procedure for SMYD2 Enzyme Assays on Peptide Substrates
The assays were all performed in a buffer consisting of 20 mM Bicine (pH=7.6), 1 mM TCEP, 0.005% Bovine Skin Gelatin, and 0.002% Tween20, prepared on the day of use. Compounds in 100% DMSO (1 ul) were spotted into a polypropylene 384-well V-bottom plates (Greiner) using a Platemate Plus outfitted with a 384-channel head (Thermo Scientific). DMSO (1 ul) was added to Columns 11, 12, 23, 24, rows A-H for the maximum signal control and 1 ul of SAH, a known product and inhibitor of SMYD2, was added to columns 11, 12, 23, 24, rows I-P for the minimum signal control. A cocktail (40 ul) containing the SMYD2 enzyme was added by Multidrop Combi (Thermo-Fisher). The compounds were allowed to incubate with SMYD2 for 30 min at room temperature, then a cocktail (10 ul) containing ^3H-SAM and peptide was added to initiate the reaction (final volume=51 ul). The final concentrations of the components were as follows: SMYD2 was 1.5 nM, ^3H-SAM was 10 nM, and peptide was 60 nM, SAH in the minimum signal control wells was 1000 uM, and the DMSO concentration was 2%. The assays were stopped by the addition of non-radioactive SAM (10 ul) to a final concentration of 600 uM, which dilutes the ^3H-SAM to a level where its incorporation into the peptide substrate is no longer detectable. 50 ul of the reaction in the 384-well polypropylene plate was then transferred to a 384-well Flashplate and the biotinylated peptides were allowed to bind to the streptavidin surface for at least 1 hour before being washed three times with 0.1% Tween20 in a Biotek ELx405 plate washer. The plates were then read in a PerkinElmer TopCount plate reader to measure the quantity of ^3H-labeled peptide bound to the Flashplate surface, measured as disintegrations per minute (dpm) or alternatively, referred to as counts per minute (cpm).
Where dpm=disintegrations per minute, cmpd=signal in assay well, and min and max are the respective minimum and maximum signal controls.
Where top and bottom are the normally allowed to float, but may be fixed at 100 or 0 respectively in a 3-parameter fit. The Hill Coefficient normally allowed to float but may also be fixed at 1 in a 3-parameter fit. I is the compound concentration.
SMYD2 biochemical assay data for representative Compounds of the Disclosure are presented in Tables 1, 3, and 4 in the column titled “SMYD2 Bicohem IC50 (μM).”
Consider `CC(C)N1C[C@@H](C)[C@H](NC(=O)c2coc(C3CC3)n2)C1` (racemic) [compound 54, (±)-trans-2-cyclopropyl-N-[4-methyl-1-(propan-2-yl)pyrrolidin-3-yl]-1,3-oxazole-4-carboxamide], for which the IC50 was above 50 µM.
In the case of `CC(C)N1C[C@@H](C)[C@H](NC(=O)CCN2CCCC2)C1` (racemic) [compound 55, (±)-trans-N-[4-methyl-1-(propan-2-yl)pyrrolidin-3-yl]-3-(pyrrolidin-1-yl)propanamide] it was above 50 µM; in that of `CC(C)N1C[C@H](C)[C@H](NC(=O)CCN2CCCC2)C1` (racemic) [compound 56, (±)-cis-N-[4-methyl-1-(propan-2-yl)pyrrolidin-3-yl]-3-(pyrrolidin-1-yl)propanamide], above 50 µM.
For `CC(C)N1C[C@@H](C)[C@H](NC(=O)c2ccc(C3CC3)c(=O)[nH]2)C1` (racemic) [compound 57, (±)-trans-5-cyclopropyl-N-[4-methyl-1-(propan-2-yl)pyrrolidin-3-yl]-6-oxo-1,6-dihydropyridine-2-carboxamide], the IC50 was above 50 µM.
`CC(=O)N[C@@H]1CN(C(C)C)C[C@H]1C` (racemic) [compound 58, (±)-trans-N-[4-methyl-1-(propan-2-yl)pyrrolidin-3-yl]acetamide]: the IC50 is above 50 µM.
Turning to `CC(C)N1C[C@H](C)[C@H](NC(=O)c2ncc(C3CC3)cn2)C1` (racemic) [compound 59, (±)-cis-5-cyclopropyl-N-[4-methyl-1-(propan-2-yl)pyrrolidin-3-yl]pyrimidine-2-carboxamide], the concentration for half-maximal inhibition (IC50) was above 50 µM.
In the case of `CC(C)N1C[C@H](C)[C@H](NC(=O)c2nccc(C3CC3)n2)C1` (racemic) [compound 60, (±)-cis-4-cyclopropyl-N-[4-methyl-1-(propan-2-yl)pyrrolidin-3-yl]pyrimidine-2-carboxamide] it was above 50 µM.
In the case of `CC(C)N1C[C@H](C)[C@H](NC(=O)c2cc(C3CC3)[nH]n2)C1` (racemic) [compound 61, (±)-cis-5-cyclopropyl-N-[4-methyl-1-(propan-2-yl)pyrrolidin-3-yl]-1H-pyrazole-3-carboxamide] it was above 50 µM; in that of `CC(C)N1C[C@@H](C)[C@H](NC(=O)c2cc(C3CC3)[nH]n2)C1` (racemic) [compound 62, (±)-trans-5-cyclopropyl-N-[4-methyl-1-(propan-2-yl)pyrrolidin-3-yl]-1H-pyrazole-3-carboxamide], above 50 µM.
Take `CC(C)N1C[C@H](C)[C@H](NC(=O)c2coc(C3CC3)n2)C1` (racemic) [compound 63, (±)-cis-2-cyclopropyl-N-[4-methyl-1-(propan-2-yl)pyrrolidin-3-yl]-1,3-oxazole-4-carboxamide]: the concentration for half-maximal inhibition (IC50) is above 50 µM.
To `CC(C)N1C[C@H](C)[C@H](NC(=O)c2cnnc(C3CC3)c2)C1` (racemic) [compound 64, (±)-cis-6-cyclopropyl-N-[4-methyl-1-(propan-2-yl)pyrrolidin-3-yl]pyridazine-4-carboxamide] belongs above 50 µM; to `CC(C)N1C[C@@H](C)[C@H](NC(=O)c2cnnc(C3CC3)c2)C1` (racemic) [compound 65, (±)-trans-6-cyclopropyl-N-[4-methyl-1-(propan-2-yl)pyrrolidin-3-yl]pyridazine-4-carboxamide], above 50 µM.
As for `CC(C)N1C[C@@H](C)[C@H](NC(=O)c2ncc(C3CC3)cn2)C1` (racemic) [compound 66, (±)-trans-5-cyclopropyl-N-[4-methyl-1-(propan-2-yl)pyrrolidin-3-yl]pyrimidine-2-carboxamide], the concentration for half-maximal inhibition (IC50) is above 50 µM.
In the case of `CC(C)N1C[C@@H](C)[C@H](NC(=O)c2nccc(C3CC3)n2)C1` (racemic) [compound 67, (±)-trans-4-cyclopropyl-N-[4-methyl-1-(propan-2-yl)pyrrolidin-3-yl]pyrimidine-2-carboxamide] it was above 50 µM.
On to `CC(C)N1C[C@@H](C)[C@H](NC(=O)c2cc(C3CC3)ncn2)C1` (racemic) [compound 68, (±)-trans-6-cyclopropyl-N-[4-methyl-1-(propan-2-yl)pyrrolidin-3-yl]pyrimidine-4-carboxamide], for which the IC50 is above 50 µM.
For the compound `CC(C)N1C[C@H](C)[C@H](NC(=O)c2ncc(C3CC3)s2)C1` (racemic) [compound 69, (±)-cis-5-cyclopropyl-N-[4-methyl-1-(propan-2-yl)pyrrolidin-3-yl]-1,3-thiazole-2-carboxamide], the IC50 came out at 3.3 µM.
In the case of `CC(C)N1C[C@@H](C)[C@H](NC(=O)c2cnc(C3CC3)o2)C1` (racemic) [compound 70, (±)-trans-2-cyclopropyl-N-[4-methyl-1-(propan-2-yl)pyrrolidin-3-yl]-1,3-oxazole-5-carboxamide] it was above 50 µM; in that of `CC(C)N1C[C@@H](C)[C@H](NC(=O)c2c[nH]c(C3CC3)n2)C1` (racemic) [compound 71, (±)-trans-2-cyclopropyl-N-[4-methyl-1-(propan-2-yl)pyrrolidin-3-yl]-1H-imidazole-4-carboxamide], above 50 µM.
In the case of `CC(C)N1C[C@@H](C)[C@H](NC(=O)c2ncc(C3CC3)s2)C1` (racemic) [compound 72, (±)-trans-5-cyclopropyl-N-[4-methyl-1-(propan-2-yl)pyrrolidin-3-yl]-1,3-thiazole-2-carboxamide] it was above 50 µM.
In the case of `CC(C)N1C[C@@H](C)[C@H](NC(=O)c2ncc(C3CC3)o2)C1` (racemic) [compound 73, (±)-trans-5-cyclopropyl-N-[4-methyl-1-(propan-2-yl)pyrrolidin-3-yl]-1,3-oxazole-2-carboxamide], the 50% inhibitory concentration (IC50) was above 50 µM.
For the compound `CC(C)N1C[C@@H](C)[C@H](NC(=O)c2ncc(C3CC3)[nH]2)C1` (racemic) [compound 74, (±)-trans-5-cyclopropyl-N-[4-methyl-1-(propan-2-yl)pyrrolidin-3-yl]-1H-imidazole-2-carboxamide], the concentration for half-maximal inhibition (IC50) was determined as 24.3 µM.
To `CC(C)N1C[C@H](C)[C@H](NC(=O)c2cc3c(cn2)OC(F)(F)O3)C1` (racemic) [compound 75, (±)-cis-2,2-difluoro-N-[4-methyl-1-(propan-2-yl)pyrrolidin-3-yl]-2H-[1,3]dioxolo[4,5-c]pyridine-6-carboxamide] belongs above 50 µM.
To `CC(C)N1C[C@H](C)[C@H](NC(=O)c2ncc(C3CC3)o2)C1` (racemic) [compound 76, (±)-cis-5-cyclopropyl-N-[4-methyl-1-(propan-2-yl)pyrrolidin-3-yl]-1,3-oxazole-2-carboxamide] belongs 6.77 µM; to `CC(C)N1C[C@H](C)[C@H](NC(=O)c2c[nH]c(C3CC3)n2)C1` (racemic) [compound 77, (±)-cis-2-cyclopropyl-N-[4-methyl-1-(propan-2-yl)pyrrolidin-3-yl]-1H-imidazole-4-carboxamide], above 50 µM.
Turning to `CC(C)N1C[C@H](C)[C@H](NC(=O)c2cnc(C3CC3)o2)C1` (racemic) [compound 78, (±)-cis-2-cyclopropyl-N-[4-methyl-1-(propan-2-yl)pyrrolidin-3-yl]-1,3-oxazole-5-carboxamide], the IC50 was above 50 µM.
Regarding `CC(C)N1C[C@H](C)[C@H](NC(=O)c2ncc(C3CC3)[nH]2)C1` (racemic) [compound 79, (±)-cis-5-cyclopropyl-N-[4-methyl-1-(propan-2-yl)pyrrolidin-3-yl]-1H-imidazole-2-carboxamide], the IC50 amounted to 1.96 µM.
